Assay results published in ChEMBL document CHEMBL5233246, “CT1-3, a novel magnolol-sulforaphane hybrid suppresses tumorigenesis through inducing mitochondria-mediated apoptosis and inhibiting epithelial mesenchymal transition” (Eur J Med Chem, 2020).
Calls of active or inactive are those of the source. No cut-off for these calls is given here.

Assays:
[1] = tested on: U-251; experiment: Antiproliferative activity against human U-251 cells assessed as reduction in cell viability incubated for 24 hrs by CCK-8 assay; assay type: functional, cell-based; settings: U-251, 24 h
[2] = Antiproliferative activity against human […] cells assessed as reduction in cell viability incubated for 24 hrs by CCK-8 assay; assay type: functional, cell-based
[3] = tested on: HONE1 cell line; experiment: Antiproliferative activity against human HONE1 cell line assessed as reduction in cell viability incubated for 24 hrs by CCK-8 assay; assay type: functional, cell-based; settings: HONE1, 24 h
[4] = tested on: A549; experiment: Antiproliferative activity against human A549 cells assessed as reduction in cell viability incubated for 24 hrs by CCK-8 assay; assay type: functional, cell-based; settings: A549, 24 h
[5] = Antiproliferative activity against human NCI-H1688 cells assessed as reduction in cell viability incubated for 24 hrs by CCK-8 assay; assay type: functional, cell-based; settings: NCI-H1688, 24 h
[6] = tested on: NCI-H1650; experiment: Antiproliferative activity against human NCI-H1650 cells assessed as reduction in cell viability incubated for 24 hrs by CCK-8 assay; assay type: functional, cell-based; settings: NCI-H1650, 24 h
[7] = tested on: NCI-H1299; experiment: Antiproliferative activity against human NCI-H1299 cells assessed as reduction in cell viability incubated for 24 hrs by CCK-8 assay; assay type: functional, cell-based; settings: NCI-H1299, 24 h
[8] = tested on: NCI-H460; experiment: Antiproliferative activity against human NCI-H460 cells assessed as reduction in cell viability incubated for 24 hrs by CCK-8 assay; assay type: functional, cell-based; settings: NCI-H460, 24 h
[9] = tested on: HepG2; experiment: Antiproliferative activity against human HepG2 cells assessed as reduction in cell viability incubated for 24 hrs by CCK-8 assay; assay type: functional, cell-based; settings: HepG2, 24 h
[10] = tested on: MCF7; experiment: Antiproliferative activity against human MCF7 cells assessed as reduction in cell viability incubated for 24 hrs by CCK-8 assay; assay type: functional, cell-based; settings: MCF7, 24 h
[11] = tested on: MDA-MB-231; experiment: Antiproliferative activity against human MDA-MB-231 cells assessed as reduction in cell viability incubated for 24 hrs by CCK-8 assay; assay type: functional, cell-based; settings: MDA-MB-231, 24 h
[12] = tested on: AGS; experiment: Antiproliferative activity against human AGS cells assessed as reduction in cell viability incubated for 24 hrs by CCK-8 assay; assay type: functional, cell-based
[13] = tested on: SGC-7901; experiment: Antiproliferative activity against human SGC-7901 cells assessed as reduction in cell viability incubated for 24 hrs by CCK-8 assay; assay type: functional, cell-based; settings: SGC-7901, 24 h
[14] = tested on: LoVo; experiment: Antiproliferative activity against human LoVo cells assessed as reduction in cell viability incubated for 24 hrs by CCK-8 assay; assay type: functional, cell-based
[15] = tested on: SW480; experiment: Antiproliferative activity against human SW480 cells assessed as reduction in cell viability incubated for 24 hrs by CCK-8 assay; assay type: functional, cell-based; settings: SW480, 24 h
[16] = tested on: OVCAR-3; experiment: Antiproliferative activity against human OVCAR-3 cells assessed as reduction in cell viability incubated for 24 hrs by CCK-8 assay; assay type: functional, cell-based; settings: OVCAR-3, 24 h
[17] = tested on: NCI-H460; experiment: Cytotoxicity against human NCI-H460 cells assessed as reduction in cell viability at 10 uM incubated for 8 hr by CCK-8 assay; assay type: functional, cell-based
[18] = tested on: L02; experiment: Cytotoxicity against human L02 cells assessed as reduction in cell viability incubated for 8 hrs by CCK-8 assay; assay type: toxicity, cell-based; settings: l02, 8 h
[19] = tested on: A549; experiment: Inhibition of colony formation in human A549 cells incubated for 48 hrs by Giemsa staining based microscopy; assay type: functional, cell-based
[20] = tested on: NCI-H460; experiment: Inhibition of colony formation in human NCI-H460 cells incubated for 48 hrs by Giemsa staining based microscopy; assay type: functional, cell-based
[21] = tested on: NCI-H1650; experiment: Inhibition of colony formation in human NCI-H1650 cells incubated for 48 hrs by Giemsa staining based microscopy; assay type: functional, cell-based
[22] = tested on: AGS; experiment: Inhibition of colony formation in human AGS cells incubated for 48 hrs by Giemsa staining based microscopy; assay type: functional, cell-based
[23] = tested on: LoVo; experiment: Inhibition of colony formation in human LoVo cells incubated for 48 hrs by Giemsa staining based microscopy; assay type: functional, cell-based
[24] = tested on: SW480; experiment: Inhibition of colony formation in human SW480 cells incubated for 48 hrs by Giemsa staining based microscopy; assay type: functional, cell-based
[25] = tested on: OVCAR-3; experiment: Inhibition of colony formation in human OVCAR-3 cells incubated for 48 hrs by Giemsa staining based microscopy; assay type: functional, cell-based
[26] = tested on: MDA-MB-231; experiment: Antitumor activity against human MDA-MB-231 cells xenografted in BALB/c mouse assessed as reduction in tumor growth at 20 mg/kg,ip measured after 28 days; assay type: functional, organism-based; settings: time 28.0 day
[27] = tested on: A549; experiment: Antitumor activity against human A549 cells xenografted in BALB/c mouse assessed as reduction in tumor growth at 20 mg/kg,ip measured after 28 days; assay type: functional, organism-based; settings: time 28.0 day
[28] = tested on: OVCAR-3; experiment: Antitumor activity against human OVCAR-3 cells xenografted in BALB/c mouse assessed as reduction in tumor growth at 20 mg/kg,ip measured after 28 days; assay type: functional, organism-based; settings: time 28.0 day
[29] = tested on: MDA-MB-231; experiment: Antitumor activity against human MDA-MB-231 cells xenografted in BALB/c mouse assessed as tumor necrosis at 20 mg/kg,ip measured after 28 days; assay type: functional, organism-based; settings: time 28.0 day
[30] = Toxicity in BALB/c mouse xenografted with human MDA-MB-231 cells assessed as liver pathological change at 20 mg/kg,ip measured after 28 days; assay type: organism-based; settings: in vivo, 672 h, time 28 day
[31] = Toxicity in BALB/c mouse xenografted with human MDA-MB-231 cells assessed as kidney pathological change at 20 mg/kg,ip measured after 28 days; assay type: organism-based; settings: in vivo, 672 h, time 28 day
[32] = tested on: A549; experiment: Induction of apoptosis in human A549 cells assessed as viable cells at 10 uM incubated for 24 hrs by annexin V-FITC/propidium iodide staining based flow cytometry analysis (reference value: 95.2%); assay type: functional; settings: read-out: Activity
[33] = tested on: A549; experiment: Induction of apoptosis in human A549 cells assessed as early apoptotic cells at 10 uM incubated for 24 hrs by annexin V-FITC/propidium iodide staining based flow cytometry analysis (reference value: 3.6%); assay type: functional

C=CCc1ccc(O)c(-c2cc(CC=C)ccc2OCC[S+]([O-])CCCCN=C=S)c1 (stereo not drawn)
IC50 [1]: 7.75 µM
IC50 [2]: 9.56 µM
IC50 [3]: 14.1 µM
IC50 [4]: 9.07 µM
IC50 [5]: 12.8 µM
IC50 [6]: 6.92 µM
IC50 [7]: 9.17 µM
IC50 [8]: 6.15 µM
IC50 [9]: 6.24 µM
IC50 [10]: 12.7 µM
IC50 [11]: 7.48 µM
IC50 [12]: 8.02 µM
IC50 [13]: 11.5 µM
IC50 [14]: 5.1 µM
IC50 [15]: 6.07 µM
IC50 [16]: 5.34 µM
Activity [17]: Active
Activity [18]: Non-Toxic
inhibition [19]: Active
inhibition [20]: Active
inhibition [21]: Active
inhibition [22]: Active
inhibition [23]: Active
inhibition [24]: Active
inhibition [25]: Active
Activity [26]: Active
Activity [27]: Active
Activity [28]: Active
Activity [29]: Active
Activity [30]: Non-Toxic
Activity [31]: Non-Toxic
viability at 10 µM [32]: 50.1%
Activity [33]: 13.9%
